# Results: US9212161B2, “Chiral synthesis of pyrrolidine core compounds en route to neuronal nitric oxide synthase inhibitors” (Northwestern University, priority 2010, dated 2015)
# System: rabbit fetuses
# Test: animal tests, rabbit fetuses under hypoxic conditions
# Type: in vivo
smiles,measurement,value
Cc1cc(N)nc(C[C@@H]2CNC[C@@H]2OCCNCCc2cccc(F)c2)c1 [Compound 1],neurological damage to rabbit fetuses,remarkable reduction in neurological damage
